# Experimental data as given in ChEMBL document CHEMBL1201862, “PubChem BioAssay data set” (2004).
# Activity calls are given as the source filed them.
# Legend:
# [1] = biological target: T1, Heat shock factor protein 1 (Mus musculus, UniProt P38532); assay: inhibition of MG132-induced HSE-luciferase signal, confirmation, cell-based, NIH3T3, luminescence, dose retest (AID 2382); assay type: functional;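 further: NIH3T3 fibroblasts with HSF1-driven luciferase reporter stressed by proteasome inhibitor MG132; luminescence from HSF1-driven luciferase expression after 8 hours of MG132 stress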
# T1 sequence (P38532 whole entry): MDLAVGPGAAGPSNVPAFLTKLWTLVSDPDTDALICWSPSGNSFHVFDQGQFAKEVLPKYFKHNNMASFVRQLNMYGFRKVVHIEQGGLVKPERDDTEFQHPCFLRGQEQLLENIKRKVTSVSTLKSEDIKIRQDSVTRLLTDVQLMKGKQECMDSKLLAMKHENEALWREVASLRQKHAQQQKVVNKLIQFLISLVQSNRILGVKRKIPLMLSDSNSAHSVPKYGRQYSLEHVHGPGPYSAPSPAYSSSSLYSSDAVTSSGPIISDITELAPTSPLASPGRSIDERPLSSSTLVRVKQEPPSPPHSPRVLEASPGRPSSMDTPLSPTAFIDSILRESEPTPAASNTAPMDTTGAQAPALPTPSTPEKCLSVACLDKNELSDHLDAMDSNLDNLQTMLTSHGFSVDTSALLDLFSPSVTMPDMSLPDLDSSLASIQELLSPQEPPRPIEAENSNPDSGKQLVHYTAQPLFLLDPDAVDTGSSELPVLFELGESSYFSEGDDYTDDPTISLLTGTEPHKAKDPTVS
# [2] = cells; settings: HEK293
# [3] = biological target: T2, Beta-2 adrenergic receptor (Homo sapiens, UniProt P07550); assay: beta2AR agonists driving receptor internalization, dose response, cell-based, FAP fluorogen, flow cytometry, cherry pick 1 (AID 588763); assay type: functional
# T2 sequence (P07550 whole entry): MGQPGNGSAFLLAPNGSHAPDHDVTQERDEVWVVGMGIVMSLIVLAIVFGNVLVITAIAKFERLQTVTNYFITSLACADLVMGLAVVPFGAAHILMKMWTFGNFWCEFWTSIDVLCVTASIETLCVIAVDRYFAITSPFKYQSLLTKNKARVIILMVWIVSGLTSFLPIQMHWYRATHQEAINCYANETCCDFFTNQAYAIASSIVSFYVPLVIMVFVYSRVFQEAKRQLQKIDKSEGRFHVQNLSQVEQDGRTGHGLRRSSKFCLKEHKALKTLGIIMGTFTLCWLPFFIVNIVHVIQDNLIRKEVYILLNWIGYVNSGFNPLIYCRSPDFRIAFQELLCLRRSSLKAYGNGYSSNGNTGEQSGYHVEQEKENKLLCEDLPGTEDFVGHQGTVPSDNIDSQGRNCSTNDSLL
# [4] = biological target: T2, Beta-2 adrenergic receptor; assay: Dose response for HTS for Beta-2AR agonists via FAP method from Powderset3.; assay type: functional
# [5] = growth suppression of PTEN-null colon cells, dose response, cell-based, HCT116 PTEN knockout (AID 1047); assay type: functional;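 further: HCT116 colon tumor cells with PTEN knocked out; cells exposed to compound for 60 hours before readout; potency for loss of cell viability measured by luminescence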
# [6] = growth suppression of beta-catenin-knockout colon cells, dose response, cell-based, HCT116, human colon tumor (AID 1045); assay type: functional;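 further: HCT116 colon tumor cells with beta catenin knocked out; cells exposed to compound for 60 hours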
# [7] = cytotoxicity in HEK-293T cells, dose response, cytotoxicity control for BCR NF-kB inhibitor project, luminescence, B-cell screen hits (AID 489021); assay type: functional, cell-based;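 further: HEK-293T cells carrying an NF-kB luciferase reporter; cells exposed to compound for about 14 hours before viability readout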
# [8] = biological target: COUP transcription factor 2 (Homo sapiens, UniProt P24468); assay: Luminescence-based cell-based high throughput dose response assay to identify inhibitors of COUP-TFII (NR2F2).; assay type: functional;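 further: HEK293 cells transiently cotransfected with COUP-TFII expression vector and reporter; luciferase reporter luminescence driven by COUP-TFII from the pX2-168 reporter plasmid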
# Sequence of COUP transcription factor 2 (P24468 whole entry): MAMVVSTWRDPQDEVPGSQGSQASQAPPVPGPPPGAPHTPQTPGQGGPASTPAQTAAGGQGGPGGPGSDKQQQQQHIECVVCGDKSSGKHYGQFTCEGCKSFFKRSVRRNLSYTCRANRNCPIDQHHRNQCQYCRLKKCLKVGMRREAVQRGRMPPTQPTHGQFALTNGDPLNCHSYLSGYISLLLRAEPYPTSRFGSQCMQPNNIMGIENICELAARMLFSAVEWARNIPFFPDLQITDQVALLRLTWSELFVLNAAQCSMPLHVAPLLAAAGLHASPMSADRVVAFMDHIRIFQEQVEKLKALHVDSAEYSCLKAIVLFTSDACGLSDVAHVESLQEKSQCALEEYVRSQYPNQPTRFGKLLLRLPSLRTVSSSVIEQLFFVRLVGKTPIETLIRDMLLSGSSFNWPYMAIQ
# [9] = biological target: ADP-ribosylation factor GTPase-activating protein 1 (Rattus norvegicus, UniProt Q62848); assay: Fluorescence polarization-based biochemical high throughput dose response screening assay to identify inhibitors of ADP-ribosylation factor GTPase activating protein 1 (ARFGAP1).; assay type: functional
# Sequence of ADP-ribosylation factor GTPase-activating protein 1 (Q62848 whole entry): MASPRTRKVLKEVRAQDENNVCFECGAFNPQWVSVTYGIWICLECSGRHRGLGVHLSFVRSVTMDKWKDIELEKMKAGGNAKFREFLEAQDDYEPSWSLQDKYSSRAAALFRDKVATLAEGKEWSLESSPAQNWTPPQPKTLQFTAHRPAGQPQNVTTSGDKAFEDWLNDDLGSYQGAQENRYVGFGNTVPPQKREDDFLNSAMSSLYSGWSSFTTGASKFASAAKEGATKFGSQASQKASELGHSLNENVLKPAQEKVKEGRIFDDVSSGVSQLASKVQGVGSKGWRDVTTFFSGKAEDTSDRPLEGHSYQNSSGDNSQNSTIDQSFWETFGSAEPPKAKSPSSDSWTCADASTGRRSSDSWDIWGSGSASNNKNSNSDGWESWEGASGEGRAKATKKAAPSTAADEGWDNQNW
# [10] = biological target: 1-phosphatidylinositol 4,5-bisphosphate phosphodiesterase gamma-1 (Homo sapiens, UniProt P19174); assay: Counterscreen for inhibitors of phospholipase C isozymes (PLC-B3): Fluorescence-based biochemical high throughput dose response assay to identify inhibitors of phospholipase C isozymes (PLC-gamma1).
# Sequence of 1-phosphatidylinositol 4,5-bisphosphate phosphodiesterase gamma-1 (P19174 whole entry): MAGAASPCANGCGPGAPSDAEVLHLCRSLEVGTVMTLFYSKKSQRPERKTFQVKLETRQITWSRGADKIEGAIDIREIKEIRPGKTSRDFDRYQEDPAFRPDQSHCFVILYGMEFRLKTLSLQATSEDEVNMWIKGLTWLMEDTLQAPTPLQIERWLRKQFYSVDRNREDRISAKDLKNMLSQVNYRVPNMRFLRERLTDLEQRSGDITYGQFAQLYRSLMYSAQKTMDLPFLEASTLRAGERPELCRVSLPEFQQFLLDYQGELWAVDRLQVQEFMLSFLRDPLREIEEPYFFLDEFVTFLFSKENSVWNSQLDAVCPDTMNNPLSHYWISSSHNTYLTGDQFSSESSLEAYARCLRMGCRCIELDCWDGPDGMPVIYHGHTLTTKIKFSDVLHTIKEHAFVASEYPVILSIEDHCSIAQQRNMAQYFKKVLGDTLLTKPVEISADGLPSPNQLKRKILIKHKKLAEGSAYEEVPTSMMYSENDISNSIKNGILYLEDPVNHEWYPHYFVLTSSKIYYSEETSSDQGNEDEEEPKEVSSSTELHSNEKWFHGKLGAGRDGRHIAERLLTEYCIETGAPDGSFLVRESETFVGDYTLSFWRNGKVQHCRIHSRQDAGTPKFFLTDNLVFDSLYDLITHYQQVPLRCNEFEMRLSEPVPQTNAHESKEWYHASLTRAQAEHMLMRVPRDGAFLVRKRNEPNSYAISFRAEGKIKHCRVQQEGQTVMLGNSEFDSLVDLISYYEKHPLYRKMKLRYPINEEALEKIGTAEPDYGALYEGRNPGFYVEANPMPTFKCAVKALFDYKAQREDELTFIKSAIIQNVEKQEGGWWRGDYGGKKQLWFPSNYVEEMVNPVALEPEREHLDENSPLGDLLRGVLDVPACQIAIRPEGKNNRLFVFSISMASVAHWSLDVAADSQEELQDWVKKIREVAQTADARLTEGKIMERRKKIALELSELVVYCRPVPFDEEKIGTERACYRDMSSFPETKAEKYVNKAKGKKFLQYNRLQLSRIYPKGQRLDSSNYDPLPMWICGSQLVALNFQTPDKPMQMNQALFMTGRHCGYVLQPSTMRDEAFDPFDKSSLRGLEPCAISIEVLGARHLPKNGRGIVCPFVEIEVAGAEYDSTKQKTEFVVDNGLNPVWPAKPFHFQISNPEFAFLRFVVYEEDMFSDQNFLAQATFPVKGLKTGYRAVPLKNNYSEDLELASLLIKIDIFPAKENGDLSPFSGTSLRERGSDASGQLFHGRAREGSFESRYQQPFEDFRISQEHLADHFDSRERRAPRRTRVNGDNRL
# [11] = biological target: 1-phosphatidylinositol 4,5-bisphosphate phosphodiesterase beta-3 (Homo sapiens, UniProt Q01970); assay: Fluorescence-based biochemical high throughput dose response assay to identify inhibitors of phospholipase C isozymes (PLC-B3).
# Sequence of 1-phosphatidylinositol 4,5-bisphosphate phosphodiesterase beta-3 (Q01970 whole entry): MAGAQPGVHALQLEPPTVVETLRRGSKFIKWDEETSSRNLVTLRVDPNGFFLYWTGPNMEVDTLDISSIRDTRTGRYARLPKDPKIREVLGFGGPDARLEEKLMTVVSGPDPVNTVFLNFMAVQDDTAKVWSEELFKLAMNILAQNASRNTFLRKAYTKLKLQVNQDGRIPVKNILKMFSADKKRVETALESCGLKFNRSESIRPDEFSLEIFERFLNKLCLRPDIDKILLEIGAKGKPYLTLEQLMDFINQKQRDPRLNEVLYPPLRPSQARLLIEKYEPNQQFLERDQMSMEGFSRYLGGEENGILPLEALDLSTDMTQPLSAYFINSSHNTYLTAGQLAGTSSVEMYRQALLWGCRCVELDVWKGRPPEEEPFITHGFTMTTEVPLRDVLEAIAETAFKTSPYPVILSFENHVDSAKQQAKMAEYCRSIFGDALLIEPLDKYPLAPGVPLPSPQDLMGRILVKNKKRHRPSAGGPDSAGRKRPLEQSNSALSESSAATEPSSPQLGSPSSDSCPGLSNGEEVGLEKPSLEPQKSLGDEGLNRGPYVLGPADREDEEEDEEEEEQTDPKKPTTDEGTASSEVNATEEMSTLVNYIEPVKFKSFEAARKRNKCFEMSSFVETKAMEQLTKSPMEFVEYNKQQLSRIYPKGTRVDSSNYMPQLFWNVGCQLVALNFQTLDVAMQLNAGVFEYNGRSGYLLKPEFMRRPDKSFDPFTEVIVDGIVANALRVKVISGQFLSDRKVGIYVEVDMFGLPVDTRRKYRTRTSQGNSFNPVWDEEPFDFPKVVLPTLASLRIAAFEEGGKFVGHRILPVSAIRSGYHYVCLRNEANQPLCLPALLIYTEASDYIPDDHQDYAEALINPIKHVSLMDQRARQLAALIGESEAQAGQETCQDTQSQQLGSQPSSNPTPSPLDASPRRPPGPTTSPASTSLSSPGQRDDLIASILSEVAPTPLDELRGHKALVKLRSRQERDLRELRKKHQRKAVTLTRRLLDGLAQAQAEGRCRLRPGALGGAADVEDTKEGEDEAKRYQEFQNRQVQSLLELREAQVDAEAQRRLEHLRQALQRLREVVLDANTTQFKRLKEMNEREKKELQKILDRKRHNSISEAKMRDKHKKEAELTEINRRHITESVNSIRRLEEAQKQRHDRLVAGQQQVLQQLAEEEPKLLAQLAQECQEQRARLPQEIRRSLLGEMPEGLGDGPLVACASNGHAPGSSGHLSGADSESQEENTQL
# [12] = cells; assay type: functional, cell-based
# [13] = biological target: T3, Trace amine-associated receptor 1 (Homo sapiens, UniProt Q96RJ0); assay: Fluorescence-based cell-based high throughput dose response assay to identify agonists of the human trace amine associated receptor 1 (TAAR1).; assay type: functional
# T3 sequence (Q96RJ0 whole entry): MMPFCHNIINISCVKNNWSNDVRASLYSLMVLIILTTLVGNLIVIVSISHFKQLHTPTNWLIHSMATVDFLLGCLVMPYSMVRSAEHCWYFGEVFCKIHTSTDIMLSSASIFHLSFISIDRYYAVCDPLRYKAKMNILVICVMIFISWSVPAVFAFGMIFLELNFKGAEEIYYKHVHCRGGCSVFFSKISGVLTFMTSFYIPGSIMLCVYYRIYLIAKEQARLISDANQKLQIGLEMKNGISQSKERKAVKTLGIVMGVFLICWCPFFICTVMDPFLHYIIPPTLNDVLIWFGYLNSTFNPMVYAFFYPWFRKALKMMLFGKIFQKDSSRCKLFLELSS
# [14] = biological target: T3, Trace amine-associated receptor 1; assay: Counterscreen for agonists of the human trace amine associated receptor 1 (hTAAR1): Fluorescence-based cell-based high throughput dose response assay to identify hTAAR1 agonist that also desensitize TAAR1 receptor response.; assay type: functional
# [15] = cells; assay type: functional, cell-based; remark: listed apart in the source
# [16] = biological target: T4, Calpain-2 catalytic subunit (Sus scrofa, UniProt P43367); assay: pig calpain II inhibitor potency, dose response, biochemical, fluorogenic peptide substrate (AID 1420); assay type: functional
# T4 sequence (P43367 whole entry): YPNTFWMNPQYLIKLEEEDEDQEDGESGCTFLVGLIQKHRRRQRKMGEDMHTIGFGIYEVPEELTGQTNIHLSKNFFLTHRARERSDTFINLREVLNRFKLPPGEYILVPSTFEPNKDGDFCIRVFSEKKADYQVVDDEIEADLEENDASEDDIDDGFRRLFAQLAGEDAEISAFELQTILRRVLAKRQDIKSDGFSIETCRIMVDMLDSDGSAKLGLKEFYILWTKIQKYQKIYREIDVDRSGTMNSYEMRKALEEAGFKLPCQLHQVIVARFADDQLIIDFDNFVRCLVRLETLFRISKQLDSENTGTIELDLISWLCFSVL
# [17] = ADAM10 inhibitors, peptide cleavage, dose response, biochemical, QFRET (AID 743254);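 further: ADAM10 enzyme with the DM2 quenched FRET peptide as substrate; EDANS fluorescence gain as the protease cuts the substrate; inhibitor potency against ADAM10 proteolytic activity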
# [18] = biological target: Disintegrin and metalloproteinase domain-containing protein 17 (Homo sapiens, UniProt P78536); assay: ADAM17 protease inhibitors, dose response, counter-screen for ADAM10 exosite inhibitor project, biochemical, quenched FRET substrate (AID 743253)
# [19] = miR-122 activators in hepatoma reporter cells, dose response, cell-based, Huh7 psiCHECK-miR122, Renilla luciferase, cherry-picked (AID 651956); assay type: functional;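 further: huh7 hepatoma cells stably carrying a psiCHECK-2 miR-122 sensor plasmid; renilla luciferase signal reporting endogenous miR-122 activity after 48 h compound exposure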
# [20] = HEK293T cytotoxicity, dose response, cytotoxicity control for miR-122 modulator project, cell-based, inhibitor set, cherry-pick, set 2 (AID 720697); assay type: functional
# [21] = HEK293T cytotoxicity, dose response, cytotoxicity control for miR-122 modulator project, cell-based, activator set, cherry-pick (AID 720690); assay type: functional;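 further: HEK293T human cells scored for general mammalian cytotoxicity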
# [22] = biological target: Endoplasmic reticulum aminopeptidase 1 (Homo sapiens, UniProt Q9NZ08); assay: ERAP1 aminopeptidase inhibitors, dose response, biochemical, cherry-pick, set 2, plate reader (AID 743314)
# Sequence of Endoplasmic reticulum aminopeptidase 1 (Q9NZ08 whole entry): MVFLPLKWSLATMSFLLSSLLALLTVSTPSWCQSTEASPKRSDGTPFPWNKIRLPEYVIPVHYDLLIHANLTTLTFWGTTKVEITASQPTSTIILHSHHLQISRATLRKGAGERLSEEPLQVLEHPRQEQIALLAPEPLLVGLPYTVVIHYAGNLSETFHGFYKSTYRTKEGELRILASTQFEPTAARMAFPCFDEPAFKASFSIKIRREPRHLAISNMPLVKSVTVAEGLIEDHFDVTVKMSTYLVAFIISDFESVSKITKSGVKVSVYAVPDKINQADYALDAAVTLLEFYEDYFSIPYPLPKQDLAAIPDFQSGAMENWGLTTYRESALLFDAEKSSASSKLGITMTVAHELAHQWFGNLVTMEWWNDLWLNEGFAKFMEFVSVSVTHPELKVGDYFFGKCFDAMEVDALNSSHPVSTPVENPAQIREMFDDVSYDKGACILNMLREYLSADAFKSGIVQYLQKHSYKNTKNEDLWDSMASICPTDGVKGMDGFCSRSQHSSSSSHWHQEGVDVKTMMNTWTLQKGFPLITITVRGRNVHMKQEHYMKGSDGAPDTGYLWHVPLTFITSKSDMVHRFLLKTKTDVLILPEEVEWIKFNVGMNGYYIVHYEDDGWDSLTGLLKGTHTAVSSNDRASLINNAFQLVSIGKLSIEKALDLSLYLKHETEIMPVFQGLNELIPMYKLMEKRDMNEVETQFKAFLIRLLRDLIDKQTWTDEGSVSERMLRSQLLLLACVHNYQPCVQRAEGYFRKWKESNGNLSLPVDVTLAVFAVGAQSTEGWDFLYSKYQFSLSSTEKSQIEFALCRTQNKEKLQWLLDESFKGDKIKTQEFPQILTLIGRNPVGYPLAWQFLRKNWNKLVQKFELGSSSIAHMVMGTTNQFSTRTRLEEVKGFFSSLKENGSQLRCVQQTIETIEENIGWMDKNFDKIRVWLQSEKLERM
# [23] = inhibitors of intracellular T. cruzi replication, confirmation, NIH3T3 host cells, beta-gal luminescence (AID 2044); assay type: functional, cell-based;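 further: intracellular parasites grown in NIH/3T3 mouse fibroblasts as host cells; luminescent beta-galactosidase reporter signal from transgenic T. cruzi replicating inside host cells; inhibitors lower the luminescence signal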
# [24] = cytotoxicity toward NIH3T3 fibroblasts, dose response, counter-screen, cell-based, ATP luminescence, mouse fibroblasts (AID 2010); assay type: functional;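 further: cells exposed to compound for about 90 hours before reading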
# [25] = biological target: Fructose-bisphosphate aldolase (Mycobacterium tuberculosis, UniProt P9WQA3); assay: Fluorescence-based biochemical high throughput dose response assay for inhibitors of the fructose-bisphosphate aldolase (FBA) of M. tuberculosis.; assay type: functional
# Sequence of Fructose-bisphosphate aldolase (P9WQA3 whole entry): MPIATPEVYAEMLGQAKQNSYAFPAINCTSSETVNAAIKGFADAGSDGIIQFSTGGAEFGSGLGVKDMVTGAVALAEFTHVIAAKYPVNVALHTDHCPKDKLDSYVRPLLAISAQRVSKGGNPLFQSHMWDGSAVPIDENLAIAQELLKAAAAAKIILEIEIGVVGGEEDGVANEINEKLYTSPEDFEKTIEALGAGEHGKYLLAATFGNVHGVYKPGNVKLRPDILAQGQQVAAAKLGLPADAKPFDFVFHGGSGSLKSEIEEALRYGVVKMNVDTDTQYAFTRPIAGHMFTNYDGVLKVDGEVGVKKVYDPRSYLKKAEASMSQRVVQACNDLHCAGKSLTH
structure (smiles),measurement,setting,value
Cc1cc(-c2ccccc2)c2ccc(NC(=O)C(C)(C)C)nc2n1,EC50,[1],> 195 µM (not active)
same,AC50,[2],> 52 µM (inactive)
CC1(C)Cc2c(c(N3CCCC3)nc3sc4c(N5CCN(CCO)CC5)ncnc4c23)CO1,EC50,[3],8.76 µM (active)
same,EC50,[4],1.71 µM (active)
CN(CC1CCCO1)S(=O)(=O)c1ccc(C(=O)Nc2nc3cc4c(cc3s2)OCO4)cc1 (stereo not given),EC50,[5],9.25 µM (active)
same,EC50,[6],6.11 µM (active)
same,IC50,[7],> 80 µM (inactive)
same,IC50,[8],2.68 µM (active)
CCN1CCN(C(=O)Cn2ncc3c4cc(C)ccc4nc-3c2O)CC1,IC50,[9],82.7 µM (inactive)
CCn1c(=S)sc2c(=O)n(CC(=O)Nc3cccc(Cl)c3)c(C)nc21,IC50,[10],> 122 µM (inactive)
same,IC50,[11],> 122 µM (inactive)
Fc1ccccc1N1CCN(C(c2cccs2)c2nnnn2CCc2ccccc2)CC1 (stereo not given),IC50,[12],> 29.9 µM (inactive)
same,EC50,[13],4.06 µM (active)
same,IC50,[14],6.73 µM (active)
same,EC50,[15],> 29.9 µM (inactive)
O=C(COC(=O)CCCSc1nc2ccccc2[nH]1)Nc1ccc(Oc2ccccc2)cc1,IC50,[16],7.16 µM (not active)
same,IC50,[17],8.39 µM (active)
same,IC50,[18],> 69.5 µM (inactive)
CCOC(=O)N1CCC(NC(=O)c2ccc3c(c2)sc2nc(-c4ccccc4)cn23)CC1,AC50,[19],1.26 µM (active)
same,AC50,[20],13.6 µM (active)
same,AC50,[21],12.3 µM (active)
Cc1cc(N(C)Cc2ccccc2)nc2cc(O)ccc12,AC50,[22],11.3 µM (active)
Nc1nc2n(n1)C(c1cccs1)CC(c1ccc(Br)cc1)N2 (stereo not given),EC50,[23],4.37 µM (active)
same,EC50,[24],> 60 µM (not active)
same,IC50,[25],4.61 µM (active)
